Source: ChEMBL document CHEMBL1150458, “A highly potent series of fluoroalkyl benzoxazine pyridine-N-oxide potassium channel openers” (Bioorg Med Chem Lett, 1993)

How the values were obtained:
Type in all cases: functional
[1] = species on record: Cavia porcellus; assay: The compound was tested for hypotensive activity against guinea pig detrusor (bladder) strip mildly depolarized with 15 mM KCl
[2] = species on record: Cavia porcellus; assay: Tested for percent increase of efflux rate constant of 0.233 uM of compound using guinea pig detrusor
[3] = test system: Rattus norvegicus; assay: Tested for lowering of blood pressure in spontaneously hypertensive rat model upon oral administration at 5 ug/kg
[4] = species on record: Cavia porcellus; assay: The compound was tested for hypotensive activity against guinea pig vascular tissue (portal vein) strip mildly depolarized with 15 mM KCl

Structure (SMILES) | IC50 [1] | also measured
C[C@@]1(C(F)(F)F)CN(c2cccc[n+]2[O-])c2cc(S(=O)(=O)c3ccccc3)ccc2O1 | 0.28 nM | 
O=[N+]([O-])c1ccc2c(c1)N(c1cccc[n+]1[O-])CC(C(F)F)(C(F)F)O2 |  | Increase [2]: 40.5%; Blood pressure [3]: 35 mmHg; IC50 [4]: 0.6 nM
C[C@]1(C(F)(F)F)CN(c2cccc[n+]2[O-])c2cc(S(=O)(=O)c3ccccc3)ccc2O1 | 0.68 nM | 
CC1(C)CN(c2cccc[n+]2[O-])c2cc(S(=O)(=O)c3ccccc3)ccc2O1 | 4.1 nM | 

More lines, main results first:

IC50 [1] | Structure (SMILES) | also measured
0.54 nM | CC1(C(F)(F)F)CN(c2cccc[n+]2[O-])c2cc(S(=O)(=O)c3ccccc3)ccc2O1 (racemic) | 
74 nM | CC1(C)CN(c2cccc[n+]2[O-])c2cc([N+](=O)[O-])ccc2O1 | 
